Blank lines part the entries; values can stand above or below the molecule they belong to.
Assays:
Assay type in all cases: binding
[1] = biological target: T1, CypAC52S (Homo sapiens, UniProt P62937, C52S); assay: Presenter cross-linking assessed by SDS-PAGE; conditions: CypA with Cysteine 52 mutated to Serine
T1 construct: made in house
Method: (§1) Experimental Protocol: A 1:2 molar ratio of KRASGTP/G12C lite and SFAX9DS are mixed together in 12.5 mM HEPES pH 7.4, 75 mM NaCl buffer containing 2% DMSO. The reaction is incubated at 37° C. for 30 min, followed by overnight incubation at room temperature. Cross-linking efficiency is assessed by SDS-PAGE gel. […] Cysteine 52 as a reactive Cysteine on CypA and was mutated to Serine to abrogate presenter cross-linking.

[2] = biological target: Wild-type CypA (Homo sapiens, UniProt P62937); assay: Presenter cross-linking assessed by SDS-PAGE
Method: as §1

[3] = biological target: T2, KRASGTP/G12C lite (Homo sapiens, UniProt P01116, C118S/C51S/C80L/G12C); assay: Conjugate formation (cross-linking) assessed by SDS-PAGE; conditions: 1:2 molar ratio protein:compound, 37° C. 30 min then overnight room temperature
T2 construct: KRASGTP/G12C lite (in house; residues 1-169 containing G12C/C51S/C80L/C118S); made in house
Method: (§2) Experimental Protocol: A 1:2 molar ratio of target protein and compound are mixed together in 12.5 mM HEPES pH 7.4, 75 mM NaCl buffer containing 2% DMSO. The reaction is incubated at 37° C. for 30 min, followed by overnight incubation at room temperature. Cross-linking efficiency is assessed by SDS-PAGE gel. Conjugates migrate slower than non-cross-linked target protein. For thiol reactive compounds, the Cys specific attachment of the compound to the target protein can be further confirmed by SDS-PAGE after the addition of 100 mM DTT to the reaction mixture, which reduces the conjugate back into its components.
as §1

[4] = biological target: T3, KRASGTP/G12C (Homo sapiens, UniProt P01116+P62942, G12C); assay: Cross-linking gel shift assay (12% SDS-PAGE); conditions: 60 μM KRAS, 180 μM FKBP12, 180 μM ligand, quenched by MMTS
T3 construct: KRASGTP/G12C (in-house, residues 1-169); made in house
Method: In parallel to mass spectrometry analysis, cross-linking reactions with C3 or […] were subjected to gel shift assay using 12% SDS-PAGE in the presence or absence of FKBP12 at the same experimental condition described above except that cross-linking reactions were set up at higher concentrations (60 μM KRAS, 180 μM FKBP12, and 180 μM C3 or […]) and they were quenched by MMTS to terminate the reaction.

[5] = biological target: T4, PTP1BS187C lite and FKBP12 (Homo sapiens, UniProt P18031+P62942, C121S/C32S/C92V/S187C); assay: Ternary complex formation by SEC and SDS-PAGE; conditions: 1:3:3 compound:FKBP12:PTP1B, SEC profile and SDS-PAGE of elution peaks
T4 construct: (in house; residues 1-293 containing C32S/C92V/C121S/S187C); made in house
Method: (§3) A 1:2:2 molar ratio of compound, presenter protein, and target protein are mixed together in 12.5 mM HEPES pH 7.4, 75 mM NaCl buffer containing 2% DMSO. The reaction is incubated at 37° C. for 30 min, followed by overnight incubation at room temperature. Pure complex is isolated by Size Exclusion Chromatography (SEC) purification. The reaction mixture is directly injected on a Superdex 75 column (CV 120 mL) pre-equilibrated with buffer containing 12.5 mM HEPES pH 7.4, 75 mM NaCl. Complex elutes at a higher molecular weight than unreacted target protein and presenter protein. To confirm presence of complex in the elution peak, samples are assessed by SDS-PAGE.
Equipment: Mini-PROTEAN TGX Gel (Bio-Rad), Superdex 75 (GE Healthcare, CV 120 mL) Experimental Protocol: A 1:3:3 molar ratio of C3SLF, FKBP12, and PTPIBswc lite are mixed together in 12.5 mM HEPES pH 7.4, 75 mM NaCl buffer containing 4% DMSO. The reaction is incubated at 37° C. for 30 min, followed by overnight incubation at room temperature. Pure complex is isolated by Size Exclusion Chromatography (SEC) purification. The reaction mixture is directly injected on a Superdex 75 column (CV 120 mL) pre-equilibrated with buffer containing 12.5 mM HEPES pH 7.4, 75 mM NaCl. […] To confirm the presence of PTP1BS187C lite and FKBP12 in the elution peak, samples are also assessed by SDS-PAGE. […]

[6] = biological target: T3, KRASGTP/G12C; assay: Presenter dependency of disulfide cross-linking by mass spectrometry; conditions: 2 μM KRAS, 10 μM ligand, 4 hours room temperature, MS
Method: This protocol describes methods to analyzing cross-linking efficiency using mass spectrometry and gel shift assay in effort to assess the presenter dependency of conjugate formation.
Experimental protocol: In order to follow the kinetics of disulfide crosslinking reactions, Agilent 6230 TOF-LC/MS and Agilent 1260 HPLC instruments employing a AdvanceBio RP-mAb C4 column (2.1×100 mm, 3.5 μm) and equipped with an auto-sampler were used. HPLC grade acetonitrile and water (each containing 1.0 mM ammonium formate and 1% formic acid by volume) were used as mobile phase with the following ramp: 0.6 ml/min flow rate, water:acetonitrile=95:5 from 0.0 to 13.0 min ramping to water:acetonitrile=5:95 from 13.0 to 17.0 min. Total time=17.0 min.
All crosslinking reactions were performed in 1.5 mL amber colored glass vials equipped with 0.5 mL glass inserts. A water-soluble peptide (SEQ ID NO: 1: […]) was employed as an internal standard. Although the actual sequence of the internal standard is inconsequential, choice of amino acid residues were critical to avoid interference in the crosslinking assays. […] All reactions and standard solutions were prepared in HEPES (pH 7.4, 1.0 mM MgCl2) buffer.
Prior to every reaction, a standard curve was obtained for the individual components using a series of standard solutions (an example of standard curve analysis for FKBP12 is shown in Table 3 below). Using the data from standard curve, μmol of protein samples were plotted against the ratio of areas (sample:std) and a linear fit (y=mx+c) was employed to obtain the slope and intercept. The value of slope and intercept involved in these standard curves were accounted for during evaluation of the substrate and product concentration before and during the course of the reaction. For every substrate/product, an initial injection was followed up by a blank injection to verify presence of any residual protein/reagents. Based on this analysis the sequence of auto-sampler can be adjusted to included appropriate number of blank injections for removal of residual components, if any. The MS spectra were analyzed using Agilent MassHunter v B.07.0 software.
In a representative experiment to assess the presenter dependency of ligand cross-linking on the target protein, KRASGTP/G12C and either C3 or C4SLF ligand were incubated in the presence or absence of FKBP12 at concentrations of 2 μM KRAS, 10 μM FKBP12, 10 μM C3 or C4SLF for 4 hours at room temperature in 12.5 mM HEPES pH 7.4, 75 mM NaCl, 1 mM MgCl2, 3% DMSO. Analysis of the amount of KRAS undergoing disulfide cross-linking with the ligand using the method above.

[7] = biological target: T5, KRASGTP/S39C lite and FKBP12 (Homo sapiens, UniProt P01116+P62942, C118S/C51S/C80L/G12V/S39C); assay: Ternary complex formation by SEC and SDS-PAGE; conditions: 1:2:2 compound:FKBP12:KRAS, SEC profile and SDS-PAGE of elution peaks
T5 construct: KRASGTP/S39C lite (in house; residues 1-169 containing G12V/S39C/C51S/C80L/C118S); made in house
Method: as §3
Experimental Protocol: A 1:2:2 molar ratio of C2-Holt, FKBP12, and KRASGTP/S39C lite are mixed together in 12.5 mM HEPES pH 7.4, 75 mM NaCl buffer containing 2% DMSO. The reaction is incubated at 37° C. for 30 min, followed by overnight incubation at room temperature. Pure complex is isolated by Size Exclusion Chromatography (SEC) purification. The reaction mixture is directly injected on a Superdex 75 column (CV 120 mL) pre-equilibrated with buffer containing 12.5 mM HEPES pH 7.4, 75 mM NaCl. […] To confirm the presence of KRASGTP/S39C lite and FKBP12 in the elution peak, samples are also assessed by SDS-PAGE.

[8] = biological target: T6, KRASGTP/S39C lite (Homo sapiens, UniProt P01116, C118S/C51S/C80L/G12V/S39C); assay: Conjugate formation (cross-linking) assessed by SDS-PAGE
T6 construct: KRASGTP/S39C lite (in house; residues 1-169 containing G12V/S39C/C51S/C80L/C118S); made in house
Method: General Protocol: This protocol describes a method for the formation of target protein-compound conjugates.
as §2
Experimental Protocol: A 1:2 molar ratio of KRASGTP/S39C lite and C2-FK506 are mixed together in 12.5 mM HEPES pH 7.4, 75 mM NaCl buffer containing 2% DMSO. The reaction is incubated at 37° C. for 30 min, followed by overnight incubation at room temperature. Cross-linking efficiency is assessed by SDS-PAGE gel. Attachment of C2-FK506 to Cysteine 39 on KRASGTP/S39C lite is also assessed by incubation of the reaction mixture with 100 mM DTT.

[9] = biological target: T7, KRASGDP/S39C lite and CypAC52S (Homo sapiens, UniProt P01116+P62937, C118S/C51S/C52S/C80L/G12V/S39C); assay: Ternary complex formation by SEC and SDS-PAGE; conditions: 1:2:2 compound:CypAC52S:KRAS, SEC profile and SDS-PAGE of elution peaks
T7 construct: KRASGDP/S39C lite (in house; residues 1-169 containing G12V/S39C/C51S/C80L/C118S); made in house
Method: as §3
Equipment: Mini-PROTEAN TGX Gel (Bio-Rad), Superdex 75 (GE Healthcare, CV 120 mL) Experimental Protocol: A 1:2:2 molar ratio of SFAC4DS, CypAC52S, and KRASGDP/S39C lite are mixed together in 12.5 mM HEPES pH 7.4, 75 mM NaCl buffer containing 2% DMSO. The reaction is incubated at 37° C. for 30 min, followed by overnight incubation at room temperature. Pure complex is isolated by Size Exclusion Chromatography (SEC) purification. The reaction mixture is directly injected on a Superdex 75 column (CV 120 mL) pre-equilibrated with buffer containing 12.5 mM HEPES pH 7.4, 75 mM NaCl. […] To confirm the presence of KRASGDP/S39C lite and CypAC52S in the elution peak, samples are also assessed by SDS-PAGE.

Sequence of Wild-type CypA (P62937 whole entry): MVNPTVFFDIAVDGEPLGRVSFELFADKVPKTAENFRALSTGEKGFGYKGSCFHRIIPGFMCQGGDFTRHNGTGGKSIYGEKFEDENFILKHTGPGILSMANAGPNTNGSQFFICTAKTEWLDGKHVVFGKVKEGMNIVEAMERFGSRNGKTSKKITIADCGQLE
T4 sequence (P18031 1-293 C32S/C92V/C121S/S187C limits assumed): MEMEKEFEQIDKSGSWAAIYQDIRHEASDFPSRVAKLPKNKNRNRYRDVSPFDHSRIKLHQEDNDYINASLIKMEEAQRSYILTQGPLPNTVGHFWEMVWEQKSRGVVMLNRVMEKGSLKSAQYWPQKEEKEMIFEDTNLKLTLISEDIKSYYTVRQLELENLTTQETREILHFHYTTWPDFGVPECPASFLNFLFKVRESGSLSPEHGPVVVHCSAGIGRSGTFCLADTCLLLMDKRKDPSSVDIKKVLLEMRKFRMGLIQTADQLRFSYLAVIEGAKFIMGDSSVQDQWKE
T4 sequence (P62942 whole entry, the tested form may be a part): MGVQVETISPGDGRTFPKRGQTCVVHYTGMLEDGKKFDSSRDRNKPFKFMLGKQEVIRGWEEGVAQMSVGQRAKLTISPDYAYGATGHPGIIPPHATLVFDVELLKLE
T1 sequence (P62937 whole entry C52S): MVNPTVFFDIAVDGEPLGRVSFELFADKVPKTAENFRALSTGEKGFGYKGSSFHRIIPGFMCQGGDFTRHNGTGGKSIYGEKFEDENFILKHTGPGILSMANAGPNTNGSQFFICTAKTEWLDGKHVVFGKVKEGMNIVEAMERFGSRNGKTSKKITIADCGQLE

Cross-linking to presenter protein [1]: does not cross-link
Cross-linking to presenter protein [2]: also cross-linked
Cross-linking efficiency [3]: cross-links efficiently
Compound: COC(=O)[C@@H]1CCCN(C(=O)[C@H](Cc2cccc(O)c2)NC(=O)[C@@H](NC(=O)CCOCCOCCSSc2ccccn2)C(C)C)N1 [SFAX9DS]

Compound: CCC(C)(C)C(=O)C(=O)N1CCCC[C@H]1C(=O)O[C@H](CCc1ccc(OC)c(OC)c1)c1cccc(NC(=O)CCSSc2ccccn2)c1 [Compound C3SLF]
Ligand cross-linking efficiency in presence vs absence of FKBP12 [4]: boosted significantly
Formation of ternary complex [5]: confirm the formation
% xlink to KRAS ([6]; FKBP12 + (10 μM)): 47.5%
% xlink to KRAS ([6]; FKBP12 − (absent)): 9.6%

Compound: CCC(C)(C)C(=O)C(=O)N1CCCC[C@H]1C(=O)O[C@H](CCc1ccc(OC)c(OC)c1)c1cccc(NC(=O)CCCSSc2ccccn2)c1 [Compound C4SLF, (R)-3-(3,4-dimethoxyphenyl)-1-(3-(4-(pyridin-2-yldisulfanyl)butanamido)phenyl)propyl (S)-1-(3,3-dimethyl-2-oxopentanoyl)piperidine-2-carboxylate]
Ligand cross-linking efficiency in presence vs absence of FKBP12 [4]: boosted significantly
% xlink to KRAS ([6]; FKBP12 + (10 μM)): 69.8%
% xlink to KRAS ([6]; FKBP12 − (absent)): 7.0%

Formation of ternary complex [7]: confirm the formation
Compound: CCC(C)(C)C(=O)C(=O)N1CCCC[C@H]1C(=O)OCCCC(=O)NCCSSc1ccccn1 [Compound C2Holt]

Cross-linking efficiency ([8]; 1:2 molar ratio protein:compound, 37° C. 30 min then overnight room temperature, SDS-PAGE): cross-links efficiently
Cys specific attachment of the compound ([8]; SDS-PAGE after 100 mM DTT): specific for Cysteine 39
Compound: CO[C@H]1C[C@@H](C)C/C(C)=C/[C@@H](CCCC(=O)NCCSSc2ccccn2)C(=O)C[C@H](O)[C@@H](C)[C@@H](/C(C)=C/[C@@H]2CC[C@@H](O)[C@H](OC)C2)OC(=O)[C@@H]2CCCCN2C(=O)C(=O)[C@]2(O)O[C@H]1[C@@H](OC)C[C@H]2C [Compound C2-FK506]

Formation of ternary complex [9]: confirm the formation
Compound: COC(=O)[C@@H]1CCCN(C(=O)[C@H](Cc2cccc(O)c2)NC(=O)[C@@H](NC(=O)CCCSSc2ccccn2)C(C)C)N1 [SFAC4DS]

— patent US20210285955A1, “METHODS AND REAGENTS FOR ANALYZING PROTEIN-PROTEIN INTERFACES” (Revolution Medicines, Inc., priority 2017, published 2021)
